Measured values taken from patent publication US20070292888A1, “Methods for Measuring Enzyme Activities in Cells, Blood, Tumors and Tissues” (GEN-PATH PHARMACEUTICALS, INC., priority 2004, published 2007).

Biological target: T1, transketolase (TK) (Mus musculus, UniProt P40142)
T1 construct: from tissue; host or cells: mouse blood, spleen, tumor, kidney, lung, liver (crude lysates)
T1 sequence (P40142 1-623): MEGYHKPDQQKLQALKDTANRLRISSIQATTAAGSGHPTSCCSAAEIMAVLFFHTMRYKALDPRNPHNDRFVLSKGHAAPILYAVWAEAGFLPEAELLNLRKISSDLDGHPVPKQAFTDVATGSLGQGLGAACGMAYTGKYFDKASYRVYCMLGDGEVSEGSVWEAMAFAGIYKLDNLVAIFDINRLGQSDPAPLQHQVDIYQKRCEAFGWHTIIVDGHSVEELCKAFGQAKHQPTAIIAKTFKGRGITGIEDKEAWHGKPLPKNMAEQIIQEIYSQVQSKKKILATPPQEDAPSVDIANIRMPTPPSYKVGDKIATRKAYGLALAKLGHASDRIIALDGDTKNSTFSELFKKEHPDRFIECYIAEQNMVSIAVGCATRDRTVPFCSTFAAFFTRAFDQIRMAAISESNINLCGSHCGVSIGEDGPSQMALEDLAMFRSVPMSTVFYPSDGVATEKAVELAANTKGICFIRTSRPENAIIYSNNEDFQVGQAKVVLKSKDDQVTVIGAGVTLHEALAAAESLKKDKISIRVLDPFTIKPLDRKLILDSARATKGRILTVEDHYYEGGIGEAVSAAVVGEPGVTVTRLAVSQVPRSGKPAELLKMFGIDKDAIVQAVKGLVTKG
Experiment: Transketolase activity in blood, tumors and tissues of treated mice (fluorescence NADH assay)
Type: in vivo
Procedure: Blood samples from mice were taken (40 μl whole blood) serially or from mice sacrificed at the end of the experiment. Tissues, such as tumors (e.g. from implantation, xenograft, or arising spontaneously), brain, heart, kidney, liver, lung and spleen were taken and flash frozen in liquid nitrogen or on dry ice and stored in −80° C. until time of assay. Four volumes of cold lysis buffer (20 mM HEPES, pH 7.5, 1 mM EDTA, 0.2 g/l Triton X-100® and 0.2 g/L sodium deoxycholate, supplemented with 1 mM DTT and 1 mM PMSF just before use) were added to the blood, which was dissolved by vortexing. For blood that was frozen before coagulation, a clear lysate was obtained. If coagulation occurred, homogenization was used as described below for tissue. Tissues were suspended in lysis buffer in 10 ml round bottom tubes and homogenized with PowerGen 125® (Fisher Scientific) for four seconds at highest power while submerged in an ice-water bath. This step was repeated after a few seconds, as necessary. The lysate was used right away or else flash frozen and stored at −80° C. until assay time. Eighty microliters (80 μl) of lysate (containing 5 mg tissue/ml lysate for TK and kGDH, 0.5 mg/ml for G6PDH) were put directly in individual wells of a 96-well clear-bottomed assay plate. Twenty microliters (20 μl) of 5× reaction mix was added to initiate each enzymatic reaction.
Each reaction was monitored for the appearance of NADH (for transketolase, alpha-ketoglutarate dehydrogenase, pyruvate dehydrogenase) or NADPH (for glucose-6-phosphate dehydrogenase) at room temperature in a fluorescent plate reader with excitation at 340 nm and emission at 470 nm in kinetic mode. The velocity was determined by the slope of the initial linear range of increasing fluorescence, expressed in fluorescent units (FU)/min. The protein concentration in the lysate was determined using Bradford assays (BioRad) with BSA as a standard. The enzymatic velocity was normalized by the total protein concentration for inter-sample comparison. To obtain reliable results across samples, similar starting protein concentrations were prepared (within approximately 30%) so that the normalized velocity required only small adjustments. This was achieved by weighing the tissue and putting in lysis buffer so that the suspensions contained the same amount of tissue/ml lysis buffer for all samples.
For TK, 15 μl of 5× assay buffer containing final concentrations of 50 mM HEPES, 40 mM KCl, 2.5 mM MgCl2, 5 mM NaArsenate, 1 mM NAD, 2 unit/ml glyceraldehydes-3-phosphate dehydrogenase (GAPDH) was added to 80 μl of lysate. Reaction kinetics were monitored on a fluorescent plate reader to allow any possible background activity via GAPDH to burn out. Then 5 μl of substrate mix containing final concentrations of 0.5 mM ribose-5-phosphate and 0.5 mM xylulose-5-phosphate was added to initiate the reaction. The reaction kinetics were monitored using a fluorescent plate reader, and the slope of the initial linear range was recorded as the velocity of the reaction (FU/min). See FIG. 1 for the reaction scheme.
To investigate the amount of in vivo enzyme inhibition following treatment with an inhibitor, we administered a single dose of N3PT (100 mg/kg, intraperitoneally [i.p.]) and blood, spleen and brain samples were collected at various times from 0-120 hours after dosing. The enzymatic activities were determined as described in Example 1. TK activity was measured in blood and spleen. Because TK activity in the brain is below the detection limit of the assay, kGDH activity was measured in brain samples. Measurements were taken at various time intervals
We measured enzyme activity in an expanded panel of tissues from mice treated with N3PT or OxyT for 11 days i.p., twice per day. Samples were taken from tumors, blood, brain, heart, kidney, lung and spleen, and TK, kGDH and G6PDH activities were determined as described above.

How did the “percent inhibition of TK activity in tumors” value (11 days i.p. twice per day, 100 mg/kg, compared to vehicle control) turn out when `Cc1ccc(C[n+]2csc(CCO)c2C)c(N)n1` [N3PT, 3-[(2-amino-6-methyl-3-pyridinyl)methyl]-5-(2-hydroxyethyl)-4-methyl thiazolium] was run?
The value was 70%.

What about the “liver enzymatic (TK) activity” value (11 days i.p. twice per day, liver) of the same compound?
The value was “hardly affected”.

And the “Inhibition of transketolase activity in the spleen” value (single dose 100 mg/kg i.p., 8-24 hours post-treatment)?
Its value is “up to 35%”.

What about the “Transketolase inhibition at 1 hour post-treatment” value (single dose 100 mg/kg i.p., 1 hour post-treatment) of the same compound?
The value was “detectable”.

What about the “Transketolase inhibition at the final sampling at 120 hours” value (single dose 100 mg/kg i.p., 120 hours (5 days)) of the same compound?
The value was “still evident”.

And the “inhibition of transketolase activity in the blood” value (single dose N3PT 100 mg/kg i.p., at the nadir (12 hours))?
The value was 80%.
